According to patent US20240124510A1, “Cyclic Glycoaminoacid Derivatives” (TFCHEM, priority 2021, published 2024):
Where “and” joins values, the source holds several entries; their conditions need not be identical. Equal values may be shown once.

Tests used:
human preadipocytes [1] = experiment: Proliferation of preadipocytes in inflammatory condition (DAPI nuclei staining); assay type: cell-based; conditions: for Cells number at the end of the culture (DAPI staining), Values: individual values; for Cell number (DAPI staining): preadipocytes, inflammatory conditions (AcMC), AcMC control 12 819 AU
Experimental: (§1) Preadipocytes have been isolated from human female hypodermis (body mass index <30 kg/m2 and <45 years old). Preadipocytes have been cultured for 24 h in 100 μl of DMEM-10% Fetal Bovine Serum (FBS) in 96-well plates. Then cells were treated to induce their differentiation in a classical or an inflammatory environment for 13 days.
(§2) To induce the preadipocytes differentiation cells were incubated in a proadipogenic cocktail (PAC) including insulin, glucocorticoid, 3-isobutyl-1-methylxanthine (IBMX), and thiazolinedione in DMEM.
(§3) To induce a fibro-inflammatory environment, cells were treated with an activated human macrophage-conditioned medium (AcMC) prepared in RPMI medium. A treatment with Dexamethasone (DXM) at 100 nM was used as anti-inflammatory response control. At D0: preadipocytes have been treated in the following conditions: • “Undifferentiation”: DMEM+¼ RPMI medium • “Differentiation”: PAC+¼ RPMI medium • “AcMC” i.e. inflammatory condition: PAC+¼ AcMC • “AcMC+DXM”: PAC+[…] AcMC+anti-inflammatory DXM at 100 nM • “AcMc+compounds”: PAC+14 AcMC+compounds to be tested
(§4) All conditions have been performed in triplicate. The medium has been changed every 2 days for 13 days.
(§5) The number of cells was determined for each condition by DAPI nuclei staining (nuclei) and expressed in arbitrary unit.

human preadipocytes [2] = experiment: Total lipid accumulation (AdipoRed staining) in preadipocytes/adipocytes in inflammatory condition; assay type: cell-based; conditions: for Total Lipid Accumulation (Adipored staining), Mean / Total Lipid Accumulation (Adipored staining), Values: end of the culture; for Total Lipid Accumulation (Adipored staining), Values: individual values
Experimental: as §1, §2, §3, §4
After 14 days of culture, preadipocytes have been fixed with 4% paraformaldehyde and then stained by AdipoRed™ at room temperature to reveal the intracellular lipid droplets. Quantification of lipid accumulation has been performed by fluorescence intensity measurements using the spectrophotometer Spark (TECAN).
(§6) Lipid accumulation and Lipid index were evaluated for each condition. Data are represented in percentage of proinflammatory control condition (AcMC condition).

human preadipocytes [3] = experiment: Proliferation of preadipocytes in classical differentiation conditions (DAPI nuclei staining); assay type: cell-based; conditions: 2 mg/ml; for Cells number at the end of the culture, DAPI staining, Mean: differentiated control 10 118 AU
Experimental: as §1, §2, §3, §4, §5

human preadipocytes [4] = experiment: Cytotoxicity (LDH release) on preadipocytes in inflammatory condition (AcMC); assay type: cell-based; conditions: for Cytotoxicity at the end of the culture, normalized by cell number, Values: single replicates
Experimental: as §1, §2, §3, §4
(§7) At D14: during the last 24 h of culture, the medium has been replaced by DMEM/F12 medium in all conditions, to collect cells' secretions.
Cytotoxicity was assessed by the measurement of the lactate dehydrogenase (LDH) released by damaged cells in the culture medium (using the kit CytoTox-One Non-Radioactive Cytotoxicity Assay, G1780, Promega). Cells were treated with 0.2% of triton at the end of the culture to determine the maximal toxicity response. The LDH measurement was realized on 24 h medium secretions after 13 days of culture.
The results were normalized by cell number, determined by nuclei staining (with DAPI: 4′,6-Diamidino-2-Phenylindole, Dihydrochloride), and were represented in percentage of the lysis positive control. Compounds presenting a level of cytotoxicity below 20% compared to control were considered as non-toxic.
Quantity of LDH measured in medium was normalized by cell number in each culture condition. Data are represented in percentage of proinflammatory control conditions (AcMC condition).

procollagen I = experiment: Extracellular secretion of procollagen I by preadipocytes in inflammatory condition (ELISA); assay type: cell-based, human; conditions: for Procollagen I secretion, Mean / Procollagen I secretion, Values: normalized by cells number (DAPI); for Procollagen I secretion, Values: individual values; for Procollagen I secretion compared to the AcMC control condition fixed at 100%: preadipocytes
Experimental: as §1, §2, §3, §4, §7
(§8) After 13 days, the 24 h culture media of the different conditions have been collected at the end of the treatment period. The concentrations of IL-6, procollagen I and MCP1 have been evaluated by ELISA assays using specific kits (for IL-6: DY206, DuoSet ELISA, R&D Systems; for Procollagen I: DY6220-05, DuoSet ELISA, R&D Systems; for MCP1: DY279-05 DuoSet ELISA, R&D Systems) according to the manufacture's recommendations. Values have been normalized to the cell number determined by DAPI staining.
Extracellular secretions of procollagen I by preadipocytes in inflammatory condition Quantity of procollagen secreted in medium was measured and normalized by cell number in each culture condition. Data are represented in percentage of proinflammatory control conditions (AcMC condition).

human preadipocytes [5] = experiment: Lipid index (AdipoRed area*intensity, imaging) in preadipocytes in inflammatory condition; assay type: cell-based; conditions: for Lipid Index (Adipored area * intensity), Mean / Lipid Index (Adipored area * intensity), Values: normalized by cells number (DAPI); for Lipid Index (Adipored area * intensity), Values: individual values
Experimental: as §1, §2, §3, §4
A second analysis of lipid accumulation was performed with an imaging acquisition and quantification. The area and the intensity of the lipid droplets were evaluated and quantified for more accurate data. An index was calculated (area*intensity of the AdipoRed staining) and normalized by cells number.
as §6

MCP1 = experiment: Extracellular secretion of MCP1 by preadipocytes in inflammatory condition (ELISA); assay type: cell-based, human; conditions: for MCP1 secretion, Mean (%) / MCP1 secretion, Values (%): inflammatory condition, normalized by cells number (Dapi); for MCP1 secretion, Values (%): individual values; for MCP1 secretion compared to the AcMC control condition fixed at 100%: differentiated preadipocytes
Experimental: as §1, §2, §3, §4, §7, §8
Quantity of MCP1 secreted in medium was measured and was normalized by cell number in each culture condition. Data are represented in percentage of proinflammatory control condition (AcMC condition).

[6] = tested on: SOD2 gene expression in aged human fibroblasts; experiment: SOD2 gene expression in aged human fibroblasts; assay type: cell-based; conditions: 6 mg/ml

Compound: N[C@H]1CCCN(CC(F)(F)[C@]2(O)O[C@H](CO)[C@H](O)[C@H](O)[C@H]2O)C1=O [Compound 6]
- Cells number at the end of the culture, DAPI staining, Mean (human preadipocytes [1]; AcMC + 1 mg/ml): 18154 AU
- Cells number at the end of the culture (DAPI staining), Values (human preadipocytes [1]; AcMC + 1 mg/ml): 18502 AU and 17976 AU and 17985 AU
- Cells number at the end of the culture, DAPI staining, Mean (human preadipocytes [1]; AcMC + 2 mg/ml): 20147 AU
- Cells number at the end of the culture (DAPI staining), Values (human preadipocytes [1]; AcMC + 2 mg/ml): 20261 AU and 20369 AU and 19811 AU
- Cell number (DAPI staining) (human preadipocytes [1]; 1 mg/ml): 18 154 AU
- Cell number (DAPI staining) (human preadipocytes [1]; 2 mg/ml): 20 147 AU
- Total Lipid Accumulation (Adipored staining), Mean (human preadipocytes [2]; AcMC + 1 mg/ml): 126.8 % of AcMC condition
- Total Lipid Accumulation (Adipored staining), Values (human preadipocytes [2]; AcMC + 1 mg/ml): 130.3 % of AcMC condition and 123.6 % of AcMC condition and 126.5 % of AcMC condition
- Total Lipid Accumulation (Adipored staining), Mean (human preadipocytes [2]; AcMC + 2 mg/ml): 137.0 % of AcMC condition
- Total Lipid Accumulation (Adipored staining), Values (human preadipocytes [2]; AcMC + 2 mg/ml): 137.2 % of AcMC condition and 132.3 % of AcMC condition and 141.4 % of AcMC condition
- Total lipid synthesis (lipid accumulation) in the inflammatory media (human preadipocytes [2]; both concentration): increase lipid synthesis
- Cells number at the end of the culture, DAPI staining, Mean (human preadipocytes [3]): 13197 AU
- Cells number at the end of the culture, DAPI staining, Mean (human preadipocytes [3]; listed as compound 6): 13 197 AU
- Cells number at the end of the culture (DAPI staining), Values (human preadipocytes [3]; single replicates): 13454 AU and 12839 AU and 13298 AU
- Cytotoxicity at the end of the culture, normalized by cell number, Mean (human preadipocytes [4]; AcMC + 1 mg/ml): 81.7 % of AcMC condition
- Cytotoxicity at the end of the culture, normalized by cell number, Values (human preadipocytes [4]; AcMC + 1 mg/ml): 53.1 % of AcMC condition and 81.8 % of AcMC condition and 110.4 % of AcMC condition
- Cytotoxicity at the end of the culture, normalized by cell number, Mean (human preadipocytes [4]; AcMC + 2 mg/ml): 53.3 % of AcMC condition
- Cytotoxicity at the end of the culture, normalized by cell number, Values (human preadipocytes [4]; AcMC + 2 mg/ml): 50.5 % of AcMC condition and 50.6 % of AcMC condition and 58.9 % of AcMC condition
- Procollagen I secretion, Mean (procollagen I; AcMC + 1 mg/ml): 49.9 % of AcMC condition
- Procollagen I secretion, Values (procollagen I; AcMC + 1 mg/ml): 39.3 % of AcMC condition and 57.7 % of AcMC condition and 52.7 % of AcMC condition
- Procollagen I secretion, Mean (procollagen I; AcMC + 2 mg/ml): 46.2 % of AcMC condition
- Procollagen I secretion, Values (procollagen I; AcMC + 2 mg/ml): 47.0 % of AcMC condition and 40.2 % of AcMC condition and 51.2 % of AcMC condition
- Procollagen I secretion compared to the AcMC control condition fixed at 100% (procollagen I; 1 mg/ml): 49.9%
- Procollagen I secretion compared to the AcMC control condition fixed at 100% (procollagen I; 2 mg/ml): 46.2%
- Lipid Index (Adipored area * intensity), Mean (human preadipocytes [5]; AcMC + 1 mg/ml): 158.6 % of AcMC condition
- Lipid Index (Adipored area * intensity), Values (human preadipocytes [5]; AcMC + 1 mg/ml): 150.8 % of AcMC condition and 156.6 % of AcMC condition and 168.4 % of AcMC condition
- Lipid Index (Adipored area * intensity), Mean (human preadipocytes [5]; AcMC + 2 mg/ml): 297.9 % of AcMC condition
- Lipid Index (Adipored area * intensity), Values (human preadipocytes [5]; AcMC + 2 mg/ml): 286.0 % of AcMC condition and 338.7 % of AcMC condition and 269.0 % of AcMC condition
- Lipid index compared to AcMC control (human preadipocytes [5]; both concentration, inflammatory media): increased
- MCP1 secretion, Mean (%) (MCP1; 1 mg/ml): 71 % of AcMC condition
- MCP1 secretion, Values (%) (MCP1; 1 mg/ml): 58.8 % of AcMC condition and 67.5 % of AcMC condition and 85.6 % of AcMC condition
- MCP1 secretion, Mean (%) (MCP1; 2 mg/ml): 65 % of AcMC condition
- MCP1 secretion, Values (%) (MCP1; 2 mg/ml): 62.8 % of AcMC condition and 65.6 % of AcMC condition and 67.5 % of AcMC condition
- MCP1 secretion compared to the AcMC control condition fixed at 100% (MCP1; 1 mg/ml): 71%
- MCP1 secretion compared to the AcMC control condition fixed at 100% (MCP1; 2 mg/ml): 65%
- increased SOD2 gene expression compared to the control [6]: 204%
